From PubChem BioAssay (NCI)
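Five compound concentrations were applied to cells in 96-well plates for 48 hours; endpoints were derived by simple linear interpolation of the resulting dose-response curve. GI50: concentration for 50% inhibition of growth. The concentration for full growth arrest is given as TGI.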

Each molecule was assayed on BT-549 breast (assay: growth of human tumour cells (NCI), 48 h).
Work on `CN1CCN(CCCOc2ccc3nc(Nc4ccc(Cl)c(C(F)(F)F)c4)ccc3c2)CC1` yielded a GI50 of 14.2 µM and a TGI of 27.7 µM.
`CC(C)n1nc(-c2cc3cc(O)ccc3[nH]2)c2c(N)ncnc21` showed a GI50 of 0.147 µM and a TGI of 1.85 µM.
`CCCCC(O)(c1ccc(Cl)cc1)C(CN1CCOCC1)c1ccc(Cl)cc1` (centres undefined) gave a GI50 of 15.7 µM and a TGI of 31 µM.
With `OC[C@H]1CCCC1O` (some centres undefined) the TGI was > 100 µM.
`Cc1cc(C(=O)Nc2ncc(Cc3cccc(C(F)(F)F)c3)s2)c2ccccc2n1` was tested, and the GI50 was 3.61 µM and the TGI was > 100 µM.
For `O=C(N/N=C/c1ccc(Cl)cc1)c1ccc(C(F)(F)F)nc1Nc1cccc(C(F)(F)F)c1`, the GI50 was 2.72 µM and the TGI was 11.7 µM.
With `COc1cc2ncnc(Nc3ccc(C)c(O)c3)c2cc1OC` the GI50 was 12.4 µM and the TGI was > 25 µM.
With `O=C1OC(C(O)CO)C(=O)C1=O` (centres undefined) the GI50 was 4320 µM and the TGI was > 10000 µM.
Work on `COC(=O)C1=CNC=C(C(=O)OC)C1C1=CC(=O)C(C)=CC1=O` yielded a GI50 of 18.2 µM and a TGI of 34.3 µM.
In the case of `C=C1C(=O)O[C@H]2[C@H]1CC/C(COC(=O)C(=O)c1cn(Cc3ccccc3)c3ccccc13)=C\CC[C@@]1(C)O[C@@H]21`, the GI50 is reported as 1.8 µM and the TGI is reported as 4.1 µM.
For `Cc1cc(S(=O)(=O)Nc2nnc(-c3ccccc3)c(-c3ccccc3)n2)c(SCC(N)=O)cc1Cl`, the GI50 was 27.4 µM and the TGI was 90.6 µM.
For `COc1ccc(/C=C/c2ccnc3ccccc23)c(OC)c1`, the TGI was > 10 µM.
With `Cc1ccc(C(=O)CN(/C=C/C(=O)C(F)(F)F)c2ccc(S(N)(=O)=O)cc2)cc1` the GI50 was 58.9 µM and the TGI was > 100 µM.
`Clc1nc(Cl)c(Cl)c(-c2ccccc2)n1` was tested, and the TGI was 7.81 µM.
With `COC(C(O)CO)C(O)C(O)C(=O)NNc1ccccc1` (centres undefined) the TGI was > 100 µM.
With `NS(=O)(=O)c1ccc(NC2(C(=O)O)CCCC2)cc1` the TGI was > 100 µM.
`N=C1C(c2nc3ccccc3s2)=C(O)CN1c1cc(C(F)(F)F)ccc1Cl` was tested, and the GI50 was 43.4 µM and the TGI was > 100 µM.
`CC(=O)CSCc1ccccn1` was tested, and the TGI was > 100 µM.
In the case of `CCOC(=O)[C@@H](N)CCC(=O)N[C@@H](CSCc1ccccc1)C(=O)N[C@@H](C(=O)OCC)c1ccccc1`, the GI50 is reported as 17.5 µM and the TGI is reported as 33 µM.
`COc1ccc(Nc2c3ccccc3nc3occc23)cc1` showed a GI50 of 18.4 µM and a TGI of 45.8 µM.
For `COc1cc(/C=C/c2cc(/C=C/c3ccc(O)c(OC)c3)n(C(=O)Nc3ccc(F)c(Cl)c3)n2)ccc1O`, the GI50 was 0.921 µM and the TGI was 7.98 µM.
With `CCCCCCCC/C=C/CCCCCCCC(=O)OC[C@H]1O[C@@H](n2ccc(N)nc2=O)C(F)(F)[C@@H]1O` the TGI was > 60.6 µM.
`NS(=O)(=O)c1ccc(N=Nc2c(O)[nH]c3ccc(-c4cnco4)cc23)cc1` was tested, and the GI50 was 18 µM and the TGI was > 25 µM.
For `Clc1ccc(C2=Nn3c(COc4ccccc4Cl)nnc3SC2)c(Cl)c1`, the GI50 was 18.8 µM and the TGI was 54.2 µM.
`COc1cc2c3c(n(CCCNC(=O)OCC4c5ccccc5-c5ccccc54)c(=O)c2cc1OC)-c1cc2c(cc1/C3=C\CCNC(=O)OCC1c3ccccc3-c3ccccc31)OCO2` was tested, and the GI50 was 12.4 µM and the TGI was > 50 µM.
For `N#C/C(=C1C=C(Br)/C(=N\O)C=C\1Cl)c1cccc2ccccc12`, the TGI was 22.1 µM.
`COc1cc2nc3cc([N+](=O)[O-])ccc3c(NCCCNCCO)c2cc1OC` was tested, and the GI50 was 0.297 µM and the TGI was 0.962 µM.
For `COC(=O)[C@@H](C)CNS(=O)(=O)N(c1cc(C(F)(F)F)cc(C(F)(F)F)c1)C1CCN(Cc2ccc(F)cc2)CC1`, the GI50 was 8.34 µM and the TGI was 22.9 µM.
With `C=C1C(=O)O[C@@H]2/C=C(\C)CC/C=C(/COC(C)=O)C[C@@H](OC(C)=O)[C@@H]12` the TGI was 16.7 µM.
`COC(=O)[C@H](C)NC(=O)NC(=O)NC(=O)CI` gave a GI50 of 15 µM and a TGI of 28.6 µM.
For `CCOC(=O)c1c(C)n(Cc2ccc(Cl)cc2Cl)c2c1c(CN(C)C)c(O)c1[nH]cnc12`, the GI50 was 23.6 µM and the TGI was 48.5 µM.
In the case of `CN1C/C=C\CCOc2cccc(c2)-c2ccnc(n2)Nc2cccc(c2)C1`, the GI50 is reported as 0.0789 µM and the TGI is reported as 0.393 µM.
For `C[C@@]12CC=C3c4nc(Nc5cccc(O)c5)sc4CC[C@]3(C)[C@H]1CC[C@]1(C)C(=O)CC[C@@H]21`, the GI50 was 1.61 µM and the TGI was 6.47 µM.
For `CN1C(=O)c2cccc3cc([N+](=O)[O-])cc(c23)C1=O`, the TGI was > 10 µM.
For `Oc1ccccc1C(Sc1nc2ccccc2s1)Sc1nc2ccccc2s1`, the TGI was > 100 µM.
With `COC1=C(C)C(=O)c2c(c(COC(N)=O)c3n2CC2C3N2C)C1=O` (centres undefined) the TGI was 0.167 µM.
In the case of `CN1c2ccc(Cl)cc2C(=O)NC1c1ccc([N+](=O)[O-])s1` (centres undefined), the TGI is reported as 34.8 µM.
In the case of `c1cc(CNC23CC4CC(CC(C4)C2)C3)cc(C[N+](Cc2cccc(CNC34CC5CC(CC(C5)C3)C4)c2)(Cc2cccc(CNC34CC5CC(CC(C5)C3)C4)c2)Cc2cccc(CNC34CC5CC(CC(C5)C3)C4)c2)c1` (centres undefined), the GI50 is reported as 4.27 µM and the TGI is reported as 11.6 µM.
For `Oc1cccnc1CN1CCCCC1`, the TGI was > 100 µM.
`CN(C)C(=O)c1cc2cnc(Nc3ccc(-c4csc5c(=S)cc(N6CCOCC6)oc45)cc3)nc2n1C1CCCC1` was tested, and the GI50 was 0.698 µM and the TGI was 3.83 µM.
`COC1=CC(=O)c2nc(-c3cccc(C)n3)[nH]c2C1=O` was tested, and the GI50 was 17.8 µM and the TGI was 36.5 µM.

The molecules below were run on DMS 114 small cell lung (assay: growth of human tumour cells (NCI), 48 h).
For `CCOC(=O)C1=C(C)N(NC(=O)Nc2ccccc2)C(=O)C1=P(c1ccccc1)(c1ccccc1)c1ccccc1`, the TGI was > 100 µM.
`COc1cc(C=C2C(=O)NC(=O)NC2=O)cc(OC)c1OC` was tested, and the TGI was > 100 µM.
With `N#CCN1C(=O)c2cccc3cc([N+](=O)[O-])cc(c23)C1=O` the TGI was > 100 µM.
`O=C1CCN2C(=O)CCN12` was tested, and the TGI was > 100 µM.
`COc1ccccc1CCc1cc(OC)c(OC)c(OC)c1` was tested, and the TGI was > 100 µM.
In the case of `COc1cc2c(cc1OC)C(CC(=O)NN=C(C)C)NCC2` (centres undefined), the TGI is reported as > 100 µM.
In the case of `COC(=O)/C(=N\Nc1nnc(C)n1N)C(C#N)c1ccc(Cl)cc1` (centres undefined), the TGI is reported as > 100 µM.
With `CS/C(N)=N\NC(=O)CCC(=O)Nc1ccccc1C(F)(F)F` the TGI was > 100 µM.
With `O=C1OC(c2ccccc2)=N/C1=C\c1cccc2ccccc12` the TGI was > 100 µM.

Each molecule was assayed on MCF7 breast (assay: growth of human tumour cells (NCI), 48 h).
Molecule `CN1CCN(CCCOc2ccc3nc(Nc4ccc(Cl)c(C(F)(F)F)c4)ccc3c2)CC1` has a GI50 of 4.94 µM and a TGI of 22 µM.
`CC(C)n1nc(-c2cc3cc(O)ccc3[nH]2)c2c(N)ncnc21` showed a GI50 of 0.128 µM and a TGI of 7.86 µM.
For `CCCCC(O)(c1ccc(Cl)cc1)C(CN1CCOCC1)c1ccc(Cl)cc1` (centres undefined), the GI50 was 10.6 µM and the TGI was 24.5 µM.
In the case of `NCC1Nc2ccccc2[C@@H](O)C1O` (some centres undefined), the TGI is reported as > 100 µM.
`OC[C@H]1CCCC1O` (some centres undefined) was tested, and the TGI was > 100 µM.
For `Cc1cccc(N2CCN(C(=S)c3ccc4c(c3)OCO4)CC2)c1`, the GI50 was 0.571 µM and the TGI was > 100 µM.
In the case of `Cc1cc(C(=O)Nc2ncc(Cc3cccc(C(F)(F)F)c3)s2)c2ccccc2n1`, the GI50 is reported as 0.579 µM and the TGI is reported as > 100 µM.
`O=C(N/N=C/c1ccc(Cl)cc1)c1ccc(C(F)(F)F)nc1Nc1cccc(C(F)(F)F)c1` gave a GI50 of 2.26 µM and a TGI of 10.8 µM.
In the case of `COc1cc2ncnc(Nc3ccc(C)c(O)c3)c2cc1OC`, the GI50 is reported as > 25 µM and the TGI is reported as > 25 µM.
With `O=C1OC(C(O)CO)C(=O)C1=O` (centres undefined) the GI50 was 2350 µM and the TGI was 5860 µM.
With `COC(=O)C1=CNC=C(C(=O)OC)C1C1=CC(=O)C(C)=CC1=O` the GI50 was 16.7 µM and the TGI was 47.5 µM.
Work on `C=C1C(=O)O[C@H]2[C@H]1CC/C(COC(=O)C(=O)c1cn(Cc3ccccc3)c3ccccc13)=C\CC[C@@]1(C)O[C@@H]21` yielded a GI50 of 1.19 µM and a TGI of 3.06 µM.
